This note sets out measurements from paper PMC2669305 (Assay and drug development technologies, 2008).

The structures appear in SMILES notation.

In this assay the target is T1, thioredoxin glutathione reductase (TGR) (Schistosoma mansoni, UniProt Q962Y6).
T1 sequence (Q962Y6 1-598): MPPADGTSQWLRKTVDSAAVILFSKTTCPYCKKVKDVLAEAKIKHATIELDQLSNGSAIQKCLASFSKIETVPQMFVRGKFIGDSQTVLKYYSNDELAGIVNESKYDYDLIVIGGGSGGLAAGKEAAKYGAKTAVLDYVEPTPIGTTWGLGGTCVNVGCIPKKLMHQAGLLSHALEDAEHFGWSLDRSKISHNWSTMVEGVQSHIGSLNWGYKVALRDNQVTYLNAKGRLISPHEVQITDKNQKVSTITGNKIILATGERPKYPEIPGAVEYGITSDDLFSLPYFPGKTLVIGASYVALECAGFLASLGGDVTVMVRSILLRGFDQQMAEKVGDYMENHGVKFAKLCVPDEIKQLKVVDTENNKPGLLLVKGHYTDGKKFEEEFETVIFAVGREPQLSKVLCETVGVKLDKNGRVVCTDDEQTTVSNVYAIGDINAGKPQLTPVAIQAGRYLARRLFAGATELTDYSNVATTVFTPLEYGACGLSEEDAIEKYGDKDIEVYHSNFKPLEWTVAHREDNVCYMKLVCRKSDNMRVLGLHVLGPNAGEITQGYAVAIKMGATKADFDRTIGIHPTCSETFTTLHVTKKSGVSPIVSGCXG
Format: biochemical.

One may read the IC50 as the concentration needed to halve the response being measured. Read a high IC50 as lower potency. Take `N#Cc1c(-c2ccccc2)no[n+]1[O-]` [furoxan, 4-phenyl-3-furoxancarbonitrile]: the concentration for half-maximal inhibition (IC50) was 4 to 7.9 µM.
